Key:
CARM1 [1] = molecular target: T1, CARM1 (Homo sapiens, UniProt Q86X55); experiment: CARM1 degradation by western blot in BT474 cells; format: cell-based; conditions: ER+/HER2+ BT474 cells, 0.5 μM, after 24 or 48 h
T1 sequence (Q86X55 1-608): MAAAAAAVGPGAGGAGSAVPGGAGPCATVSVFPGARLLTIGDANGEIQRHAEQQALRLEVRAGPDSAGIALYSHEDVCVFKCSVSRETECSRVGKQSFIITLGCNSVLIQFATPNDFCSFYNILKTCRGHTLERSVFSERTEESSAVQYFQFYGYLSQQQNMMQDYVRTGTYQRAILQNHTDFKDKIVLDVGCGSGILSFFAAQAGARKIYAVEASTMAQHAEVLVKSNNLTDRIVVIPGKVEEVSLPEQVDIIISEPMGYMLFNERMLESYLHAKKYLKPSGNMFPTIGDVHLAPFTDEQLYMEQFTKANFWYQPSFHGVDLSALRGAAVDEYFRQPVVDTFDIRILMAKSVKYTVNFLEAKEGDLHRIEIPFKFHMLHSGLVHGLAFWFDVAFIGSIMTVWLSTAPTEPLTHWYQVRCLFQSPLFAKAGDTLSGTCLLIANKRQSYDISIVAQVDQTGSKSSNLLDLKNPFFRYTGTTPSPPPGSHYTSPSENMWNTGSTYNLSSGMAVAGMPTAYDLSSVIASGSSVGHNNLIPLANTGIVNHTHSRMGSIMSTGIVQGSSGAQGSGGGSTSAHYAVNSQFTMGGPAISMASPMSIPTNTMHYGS
Source text: FIGS. 7A-7F. […] Cell lysates were collected and CARM1, methyl-BAF155, total BAF155, methyl-PABP1, and total PABP1 levels were detected by Western blot. […] Cell lysates were collected and CARM1, methyl-BAF155, total BAF155 levels were detected by Western blot. […] Cell proliferation rate normalized to day 0 was plotted. […] Migrated cells were stained with 1% crystal violet and the percentage of migrated cells were plotted. Data mean±s.d. ***. P≤0.001.
(§1) Western Blot Assay. Cells were harvested and washed with Dulbecco's phosphate-buffered saline (PBS), then lysed with 1×RIPA lysis buffer (50 mM Tris pH 7.5, 150 mM NaCl, 1% NP-40, 0.5% sodium deoxycholate, and 0.1% sodium dodecyl sulfate) supplemented with 1 mM phenylmethylsulfonyl fluoride, 10 μg/mL aprotinin, 1 μM leupeptin, and 10 μg/mL pepstatin on ice for 20 min. The supernatant was collected after spinning down at 15000 RPM at 4 degrees Celsius for 10 min. The concentration of whole lysates was quantified using a Bradford assay. 50-75 μg of cell lysates was boiled in 4× Laemmli Loading Dye and boiled at 100 degrees Celsius for 10 min. 25 μg were run in 8% SDS-PAGE gels and transferred to nitrocellulose membranes. Blots were blocked in 5% skim milk in PBST [PBS and 0.1% Tween 20] for 45 min, then incubated with primary antibodies at 4 degrees Celsius overnight. […]

[2] = tested on: PABP1 and BAF155 di-methylation by CARM1; experiment: PABP1 and BAF155 di-methylation (me2a) inhibition in MCF7 cells, western blot; format: cell-based, human; conditions: 24 h, 0.1 μM 3b versus 10 μM TP-064
Source text: (See Wang et al. “CARM1 Methylates Chromatin Remodeling Factor BAF155 to Enhance Tumor Progression and Metastasis” Cancer Cell 2014, 25 (1), 21-36; Lee and Bedford. “PABP1 Identified as an Arginine Methyltransferase Substrate Using High-Density Protein Arrays” EMBO Rep. 2002, 3 (3), 268-273.) In fact, asymmetric dimethylation (me2a) of these proteins are routinely investigated for CARM1 inhibitors.
as §1

CARM1 [3] = molecular target: T1, CARM1; experiment: CARM1 degradation by western blot in MCF7 cells; format: cell-based; set-up: Cell lysates were collected and the CARM1 levels were detected by western blots; endogenous in cells; host or cells: MCF7

In the case of `CNCCN1CCC(c2cc(CN(C)C(=O)c3cccc(Oc4ccc(OCC(=O)N5CCC(CN6CCC(CN7CCN(CC(=O)N[C@H](C(=O)N8C[C@H](O)C[C@H]8C(=O)N[C@@H](C)c8ccc(-c9scnc9C)cc8)C(C)(C)C)CC7)CC6)CC5)cc4)c3)ccn2)CC1` [Compound 3b, (2S,4R)-1-((S)-3,3-dimethyl-2-(2-(4-((1-((1-(2-(4-(3-(methyl((2-(1-(2-(methylamino)ethyl)piperidin-4-yl)pyridin-4-yl)methyl)carbamoyl)phenoxy)phenoxy)acetyl)piperidin-4-yl)methyl)piperidin-4-yl)methyl)piperazin-1-yl)acetamido)butanoyl)-4-hydroxy-N—((S)-1-(4-(4-methylthiazol-5-yl)phenyl)ethyl)pyrrolidine-2-carboxamide], the CARM1 degradation (CARM1 [1]) is reported as “effectively degraded”, the “Levels of PABP1 and BAF155 me2a inhibition” value [2] is reported as “at least as equivalent to that of 10 μM of TP-064” and the Dmax (CARM1 [3]; MCF7, read-out: Dmax of CARM1 degradation, MCF7 cells, 24 h, western blot, three independent experiments) is reported as greater than 95%. For the same molecule, the “Time after exposure at which CARM1 degradation was observed” value (CARM1 [3]; MCF7 cells, 0.5 μM, time course) was 2 h, the “CARM1 degradation over time course” value (CARM1 [3]; MCF7 cells, 0.5 μM, up to 48 h) was “degradation sustained and further maximized over the course of 48 h” and the “CARM1 degradation activity, rigid linker compared with 2e” value (CARM1 [3]; MCF7 cells, 0.1, 0.5, 1.0 and 10.0 μM, 24 hours, compared with 2e at 0.5 μM) was “significantly improved CARM1 degradation activity”.
